These results are taken from patent US11827628B2, “Compositions and methods for inhibition of the JAK pathway” (Rigel Pharmaceuticals, Inc., priority 2005, dated 2023).

A word on the pIC50: it is −log10 of the IC50, conventionally taken in molar units.

The subject of assay [1] is IL-4 stimulated expression of CD23 in human Ramos B cells (JAK-1 and JAK-3). As to the kind of experiment: Assay for Ramos B-Cell Line Stimulated with IL-4 (CD23 upregulation, FACS). The note with it: read-out: IC50, Example 41. The format is cell-based. The procedure, abridged:
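Steps: Ramos B cells are suspended in RPMI with 5% serum, exposed to compound for 1 h at 37 °C, stimulated with IL-4 (final 50 units/mL) for 20-24 h, stained for CD23 and analysed by flow cytometry. IC50 is calculated.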

In assay [2] the test system is up-regulation of ICAM-1 (CD54) by IFNγ in U937 human monocytic cells. As to the kind of experiment: U937 IFNγ ICAM1 FACS Assay. Format: cell-based. The note with it: ICAM-1 expression by FACS, read-out: IC50, Example 44. The text has this:
The activity of the compounds of the invention may additionally be characterized by assaying the effect of the 2,4-substituted pyrimidinediamine compounds described herein on A549 lung epithelial cells and U937 cells. A549 lung epithelial cells and U937 cells up-regulate ICAM-1 (CD54) surface expression in response to a variety of different stimuli. Therefore, using ICAM-1 expression as readout, test compound effects on different signaling pathways can be assessed in the same cell type. Stimulation with IL-1β through the IL-1β receptor activates the TRAF6/NFκB pathway resulting in up-regulation of ICAM-1. IFNγ induces ICAM-1 up-regulation through activation of the JAK1/JAK2 pathway. The up-regulation of ICAM-1 can be quantified by flow cytometry across a compound dose curve and EC50, values are calculated.
U937 human monocytic cells up-regulate ICAM-1 (CD54) surface expression in response to a variety of different stimuli. Therefore, using ICAM-1 expression as readout, compound effects on different signaling pathways can be assessed in the same cell type. IFNγ up-regulates ICAM-1 through activation of the JAK/Stat pathway. In this example, the up-regulation of ICAM-1 by IFNγ was assessed.
The U937 human monocytic cell line was obtained from ATCC of Rockville Maryland, catalog number CRL-1593.2, and cultured in RPM1-1640 medium containing 10% (v/v) FCS. U937 cells were grown in 10% RPMI. The cells were then plated at a concentration of 100,000 cells per 160 μL in 96 well flat bottom plates. […] Then 4 μL of test compound was transferred to 76 μL of 10% RPMI resulting in a 10× solution (100 μM test compound, 5% DMSO). For control wells, 4 μL of DMSO was diluted into 76 μL 10% RPMI.
The assay was performed in duplicate with 8 points (8 3-fold dilution concentrations from […]) and with 4 wells of DMSO only (control wells) under stimulated conditions and 4 wells of DMSO only under unstimulated conditions.
The diluted compound plate was mixed 2× using a multimek (Beckman Coulter of Brea, California) and then 20 μL of the diluted compounds was transferred to the 96 well plate containing 160 μL of cells, which were then mixed again twice at low speeds. The cells and compounds were then pre-incubated for 30 minutes at 37° C. with 5% CO2.
The 10× stimulation mix was made by preparing a 100 ng/mL solution of human IFNγ in 10% RPMI. […] The cells were kept under conditions for stimulation for 18-24 hours at 37° C. with 5% CO2.
The cells were transferred to a 96 well round bottom plate for staining and then kept on ice for the duration of the staining procedure. Cells were spun down at 1000 rpm for 5 minutes at 4° C., following which the supernatant was removed. Following removal of the supernatant, 1 μL APC conjugated mouse anti-human ICAM-1 antibody was added per 100 μL FACS buffer. The cells were then incubated on ice in the dark for 30 minutes. Following incubation, […] of FACS buffer was added and the cells were centrifuged at 1000 rpm for 5 minutes at 4° C., following which the supernatant was removed. After removal of the supernatant, 200 μL of FACS buffer was added and the cells were resuspended. After suspension, the cells were centrifuged at 1000 rpm for 5 min at 4° C. Supernatant was then removed prior to resuspension of the cells in 150 μL FACS buffer.
Detection was performed using a BD LSR I System Flow Cytometer, purchased from BD Biosciences of San Jose, California The live cells were gated for live scatter and the geometric mean of ICAM-APC was measured (Becton-Dickinson CellQuest software version 3.3, Franklin Lakes, NJ). Both % live cells and ICAM-1 expression was analyzed. The assays for the test compounds were carried out in parallel with a control compound of known activity.
In general terms: In flow cytometry, cells or beads pass a laser one at a time.

Setting [3] is: Homo sapiens, Ramos, Ramos B-cell line stimulated with IL-4, CD23 expression by FACS.
Setting [4] is: Homo sapiens, U-937, U937 cells stimulated with IFNγ.
[5] abbreviates: Ramos B-cell line stimulated with IL-4, CD23 expression by FACS.
The mark [6] stands for this setting: U937 cells stimulated with IFNγ.
Setting [7] is: Ramos B cells stimulated with IL-4, CD23 expression by FACS.

pIC50: −log10 of the molar value. Where a name gives a salt, the structure may show the parent alone. Read-outs that look alike come from different tables or passages of the source.

As for `Cc1ccc(Nc2ncc(F)c(Nc3ccc(OCC#N)cc3)n2)cc1S(=O)(=O)NC(=O)C(C)C` [Compound I-39, N4-(4-Cyanomethyleneoxy)phenyl-5-fluoro-N2-(3-isobutyrylaminosulfonyl-4-methyl)phenyl-2,4-pyrimidinediamine sodium Salt], the pIC50 in assay [1] (Ramos B-cell line stimulated with IL-4, CD23 expression by FACS, sodium salt) was 6.08; in assay [2] (U937 cells stimulated with IFNγ, sodium Salt) it was 5.03.

`N#CCOc1ccc(Nc2nc(Nc3cccc(S(N)(=O)=O)c3)ncc2F)cc1CO` [Compound I-50, N2-(3-Aminosulfonylphenyl)-N4-(4-cyanomethoxy-3-hydroxymethylphenyl)-5-fluoro-2,4-pyrimidinediamine]: the pIC50 in assay [1] (setting [3]) is 6.43; in assay [2] (setting [4]), 4.60.

Consider `N#CCOc1ccc(Nc2nc(Nc3cccc(S(N)(=O)=O)c3)ncc2F)cc1-c1ccn(CC#N)n1` [Compound I-53, N2-(3-Aminosulfonylphenyl)-N4-[4-cyanomethoxy-3-(1-cyanomethylpyrazol-3-yl)phenyl]-5-fluoro-2,4-pyrimidinediamine], for which the negative-log IC50 (pIC50) is 6.63 in assay [1] (setting [3]) and 4.91 in assay [2] (setting [4]).

Regarding `Cc1ccc(Nc2ncc(F)c(Nc3ccc(OCC#N)c(-c4ccn(CC#N)n4)c3)n2)cc1S(N)(=O)=O` [Compound I-54, N2-(3-Aminosulfonyl-4-methylphenyl]-N4-[4-cyanomethoxy-3-(1-cyanomethylpyrazol-3-yl)phenyl]-5-fluoro-2,4-pyrimidinediamine], the negative logarithm of the IC50 (pIC50) in assay [1] (setting [3]) was 6.56; in assay [2] (setting [4]) it was 5.15.

With `CNS(=O)(=O)c1cc(Nc2ncc(F)c(Nc3ccc(OCc4ccccn4)cc3)n2)ccc1C` [Compound I-161, 5-Fluoro-N2-[3-(N-methylaminosulfony)-4-methylphenyl]-5-fluoro-N4-[4-(2-pyridinyl)methyleneoxyphenyl]-2,4-pyrimidinediamine], the pIC50 in assay [1] (setting [5]) is 6.50; in assay [2] (setting [6]), 5.62.

Regarding `CNS(=O)(=O)c1cc(Nc2ncc(F)c(Nc3ccc(OCc4cc(C)on4)c(C)c3)n2)ccc1C` [Compound I-239, 5-Fluoro-N2-[3-N-(methyl)aminosulfonyl-4-methylphenyl]-N4-[3-methyl-4-(5-methylisoxazol-3-yl)methyleneoxyphenyl]-2,4-pyrimidinediamine], the values for the pIC50 in assay [1] (setting [5]) and in assay [2] (setting [6]) were 6.62 and 5.15, respectively.

With `Cc1cc(COc2ccc(Nc3nc(Nc4cccc(S(=O)(=O)N(Cc5oc(=O)oc5C(C)(C)C)Cc5oc(=O)oc5C(C)(C)C)c4)ncc3F)cc2)no1` [Compound I-249, N2-{3-[N-N-Di-[(5-t-Butyl-1,3-dioxolene-2-one-4-yl)methylene]]aminosulfonylphenyl}-5-fluoro-N4-[4-(5-methylisoxazol-3-yl)methyleneoxyphenyl]-2,4-pyrimidinediamine], the figures for the negative logarithm of the IC50 (pIC50) in assay [1] (setting [5]) and in assay [2] (setting [6]) were 6.29 and 4.96, respectively.

With `CCC(=O)NS(=O)(=O)c1cccc(Nc2ncc(F)c(Nc3ccc(OCc4nc(C)no4)cc3)n2)c1` [Compound I-264], the pIC50 in assay [1] (setting [5]) is 6.22; in assay [2] (setting [6]), 4.82.

`Cc1ccc(Nc2ncc(F)c(Nc3ccc4c(c3)N(Cc3ccccn3)C(=O)CO4)n2)cc1S(N)(=O)=O` [Compound V-3, N2-(3-Aminosulphonyl-4-methylphenyl)-5-fluoro-N4-[3-oxo-4-(2-pyridylmethy)-benz[1,4]oxazin-6-yl]-2,4-pyrimidinediamine]: the pIC50 in assay [1] (setting [7]) is 6.18; in assay [2] (setting [6]) it was 4.86.

Regarding `CCC(=O)NCc1ccc(Nc2nc(Nc3ccc(C)c(S(N)(=O)=O)c3)ncc2F)cc1` [III-37, N2-(3-aminosulfonyl-4-methyl)phenyl-N4-(4-ethylcarbonylaminomethyl)phenyl-5-fluoro-2,4-pyrimidinediamine], the pIC50 in assay [1] (setting [5]) is 6.52; in assay [2] (setting [6]), 6.08.

On to `CCN(CC)CCNS(=O)(=O)c1ccc(Nc2ncc(F)c(Nc3ccc(Cc4ccncc4)cc3)n2)cc1` [III-67, N2-[4-(2-N,N-Diethylaminoethyl)aminosulfonylphenyl)-5-fluoro-N4-[4-(4-pyridinylmethyl)phenyl]-2,4-pyrimidinediamine], for which the pIC50 was 6.46 in assay [1] (setting [5]) and 5.52 in assay [2] (setting [6]).

`NC(=O)NCc1cccc(Nc2nc(Nc3ccc(S(N)(=O)=O)cc3)ncc2F)c1` [III-113, N4-(3-aminocarbonylaminomethyl)phenyl-N2-(4-aminosulfonyl)phenyl-5-fluoro-2,4-pyrimidinediamine]: the pIC50 in assay [1] (setting [7]) is 5.99; in assay [2] (setting [6]) it was 6.46.

With `Cc1c(Cl)cc(Nc2ncc(F)c(Nc3ccc(OC(F)(F)F)c(Cl)c3)n2)cc1S(N)(=O)=O` [VI-14, N2-(3-Aminosulfonyl-5-chloro-4-methylphenyl)-N4-(3-chloro-4-trifluoromethoxyphenyl)-5-fluoro-2,4-pyrimidinediamine], the pIC50 in assay [1] (Homo sapiens, Ramos, Ramos B cells stimulated with IL-4, CD23 expression by FACS) is 6.38; in assay [2] (setting [4]) it was 5.03.
